Laboratory results published in PubChem BioAssay (NCI).
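Briefly, cells in 96-well plates were exposed to five compound concentrations for 48 h, and endpoints were estimated by linear interpolation. GI50: concentration for 50% inhibition of growth. TGI: total growth inhibition.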

Columns and labels:
Test in all cases: NCI tumour cell line growth inhibition, 48 h
MOLT-4 leukemia = test system: MOLT-4 leukemia
HOP-62 NSCLC = test system: HOP-62 NSCLC
SF-539 CNS = test system: SF-539 CNS
DU-145 prostate = test system: DU-145 prostate
SN12C renal = test system: SN12C renal

| SMILES | GI50 (MOLT-4 leukemia) [µM] | TGI (MOLT-4 leukemia) [µM] | GI50 (HOP-62 NSCLC) [µM] | TGI (HOP-62 NSCLC) [µM] | GI50 (SF-539 CNS) [µM] | TGI (SF-539 CNS) [µM] | GI50 (DU-145 prostate) [µM] | TGI (DU-145 prostate) [µM] | GI50 (SN12C renal) [µM] | TGI (SN12C renal) [µM] |
| --- | --- | --- | --- | --- | --- | --- | --- | --- | --- | --- |
| CC(=O)C1CCC2C3CC=C4CC(SC(=N)N)CCC4(C)C3CCC12C (centres undefined) | 1.78 | 4.19 | 1.93 | 3.6 | 1.87 | 3.96 | 3.13 | 10.3 | – | – |
| O=S(=O)(Nc1ccc2ccccc2c1)c1ccc(-c2cnc(C3CC3)o2)cc1 | 0.873 | > 100 | 1.3 | 17.1 | 1.17 | 3.92 | 2.96 | 20.4 | 3.69 | 17.3 |
| COc1ccc2c(c1)N(CCO)C1=C(C(=O)OC1)C2c1ccccc1 (centres undefined) | 3.63 | > 50 | 2.18 | > 50 | – | – | 1.74 | 6.01 | 3.7 | > 50 |
| C1CCN2CC3CCCN4CCCC(C2C1)C34 (centres undefined) | – | > 100 | – | > 100 | – | > 100 | – | > 100 | – | > 100 |
| N#Cc1c(N)nc(N2CCSCC2)c(C#N)c1-c1ccc(O)cc1 | 11.6 | 34.5 | 12.6 | 28.3 | 18 | 39 | 27.1 | > 100 | 19.8 | 50.2 |
| COC(=O)C1=C(O)[C@H](C(=O)OC)[C@]2(O)[C@@H](C(=O)OC)[C@H]1C[C@@H](c1ccc(OC(=O)/C=C/c3ccco3)cc1)[C@@H]2C(=O)OC | 1.29 | 6.67 | 15.7 | 30.5 | – | – | – | – | 22.4 | 52.3 |
| O=C(Nc1cccnc1)c1ccc2ccc3ccc(C(=O)Nc4cccnc4)nc3c2n1 | 0.419 | > 100 | 0.13 | > 100 | – | – | 0.195 | > 100 | 0.3 | > 100 |
| CSc1ccc(C2=NN(C(C)=O)C(c3ccc(F)cc3)C2)cc1 (centres undefined) | 2.36 | 9.69 | 16.6 | 31.1 | 17.5 | 35.4 | 23.8 | 61.7 | 1.23 | 12.6 |
| CC(=O)O[C@H]1C(=O)[C@@]2(C)[C@H]([C@H](OC(=O)c3ccccc3)[C@@]3(O)C[C@H](O)C(C)=C1C3(C)C)[C@]1(OC(C)=O)CO[C@@H]1C[C@@H]2O | – | > 100 | – | > 100 | – | > 100 | – | > 100 | – | > 100 |
| COc1cc(-c2ccc(NC(=O)NC3CC3)c(OC)c2)ccc1NC(=O)NC1CC1 | 3.33 | > 100 | 28.8 | > 100 | 4.86 | 99.8 | 6.89 | > 100 | 18.8 | > 100 |
| C/C=C(/C)C(=O)OC1C=C(CO)C(=O)C(OC(=O)C(C)(O)C(C)Cl)C1C(C)C (centres undefined) | 0.301 | 4.88 | 2.1 | 4.89 | 1.28 | 2.62 | 1.13 | 2.4 | 0.731 | 2.11 |
| COc1ccc(CNc2cnc3cc(N)cc(N)c3n2)cc1 | 15.9 | 43.2 | 35.9 | > 100 | 21.7 | 39.4 | 19.4 | 49.2 | 18.4 | 32.9 |
| CC[C@]12C=CCN3CC[C@@]4(c5ccc(OC)cc5N(C)[C@H]4[C@@](O)(C(=O)OC)[C@@H]1OC(=O)CCC(=O)N[C@H](Cc1c[nH]c4ccccc14)C(=O)OC)[C@@H]32 | 3.25 | > 100 | 6.32 | 24.5 | 2.63 | 7.06 | 4.44 | 20.3 | 3.68 | 23.9 |
| COC(=O)C(=O)C(C(=O)C(=O)Nc1ccc(C)cc1)c1nc2ccc(C(=O)c3ccccc3)cc2[nH]c1=O (centres undefined) | – | – | – | > 100 | – | > 100 | – | – | – | > 100 |
| COC(=O)c1ccc2c(c1)c1c(C)c3ccncc3c(C)c1n2C | 0.0992 | 44.7 | 0.106 | > 100 | 0.332 | 45.1 | 0.313 | > 100 | 0.214 | > 100 |
| CC1CCc2c(c(CC3CC(=O)NC(=O)C3)nn2-c2ccccc2)C1 (centres undefined) | – | > 100 | – | > 100 | – | > 100 | – | > 100 | – | > 100 |
| CC1=NN(C(=O)c2ccncc2)C(=O)C1N=Nc1ccc2ccccc2c1 (centres undefined) | – | > 38.1 | – | > 100 | – | > 100 | – | > 100 | – | > 100 |

| SMILES | GI50 (MOLT-4 leukemia) [µM] | TGI (MOLT-4 leukemia) [µM] | GI50 (HOP-62 NSCLC) [µM] | TGI (HOP-62 NSCLC) [µM] | GI50 (SF-539 CNS) [µM] | TGI (SF-539 CNS) [µM] | GI50 (DU-145 prostate) [µM] | TGI (DU-145 prostate) [µM] | GI50 (SN12C renal) [µM] | TGI (SN12C renal) [µM] |
| --- | --- | --- | --- | --- | --- | --- | --- | --- | --- | --- |
| CCc1nc2cc(/C=C/C(=O)NO)ccc2c(=O)n1CCc1ccc(F)cc1 | 1.79 | > 100 | 1.5 | 4.44 | 1.73 | 5.53 | 1.94 | 8.67 | – | – |
| CO[C@@H]1[C@H]2[C@@H](C)c3ccoc3C[C@@H]2[C@@]2(C)CC[C@H](OC(=O)c3ccccc3)[C@](C)(C(=O)O)[C@]2(O)[C@@H]1OC(=O)c1ccccc1 | 9.67 | 38.4 | – | – | 8.81 | 16.5 | 12.1 | > 50 | 7.11 | 17 |
| CC(CCCC1SCC2NC(=O)NC21)C(=O)O (centres undefined) | – | > 100 | – | > 100 | – | > 100 | – | > 100 | – | > 100 |
| COc1ccc(/C=C2\CC(C)CC3C2=NN(c2ccccc2)C3c2ccc(OC)c(OC)c2)cc1OC (centres undefined) | 2.69 | 92.4 | 4.87 | 17 | 4.46 | 24.9 | 4.17 | > 100 | 3.45 | 14.5 |
| O=C(Nc1nc(-c2ccc(Cl)cc2)nc2c1sc(=S)n2-c1ccccc1)C(F)(F)F | > 100 | > 100 | 2.83 | 7.98 | 1.98 | 3.88 | 4.32 | 25.3 | 11.3 | 45.3 |
| Nc1nc(N)c(N=Nc2ccc(C(=O)O)c(O)c2)c(N)n1 | – | > 100 | – | > 100 | – | > 100 | – | > 100 | – | > 100 |
| C=C1NC(=O)C(CC(C(=O)C(=O)Nc2c(C)cccc2C(C)(C)C)C(=O)c2ccc3ccccc3c2)C(=O)N1 (centres undefined) | – | > 100 | – | – | – | > 100 | – | > 100 | – | > 100 |
| Cc1cc(NNC(=O)c2ccccc2O)nc(Nc2nc3ccccc3o2)n1 | 1.31 | 7.88 | 0.865 | 13.5 | 1.41 | 11.2 | 1.83 | 18.3 | 1.62 | 19.1 |
| Cc1cn2c(/C=C3/C(=O)Nc4ccc(F)cc43)c(C)nc2s1 | 5.02 | 33.2 | 8.81 | > 50 | 7.29 | 18.4 | 9.58 | 32.3 | 8.56 | 27.4 |
| CC[C@@H](C)Nc1cc(C(=O)NC2CC3CCC(C2)N3c2ccc(C(=O)C3CC3)cn2)c(C)cc1C(N)=O (some centres undefined) | 0.0374 | 31 | 0.0598 | > 100 | 0.0679 | > 100 | 0.0663 | > 62.9 | 0.052 | > 100 |
| O=C(Nc1cccc(Cl)c1)c1cc(N=Nc2ccc([N+](=O)[O-])cc2Cl)ccc1O | 1.74 | 4.4 | 3.27 | 9.46 | 2.41 | 8.61 | 1.43 | 8.72 | 2.86 | 8.87 |
| CC(C)CCC(=O)[C@@H](C)[C@H]1[C@@H](OC2OCC(O)C(O)C2NS(C)(=O)=O)C[C@H]2[C@@H]3CC=C4C[C@@H](O)CC[C@]4(C)[C@H]3CC[C@]12C (some centres undefined) | 0.827 | 2.57 | 1.26 | 6.34 | 0.202 | 1.11 | 3.42 | 20.4 | 8.36 | > 40 |
| C=C1CCC2C3(C)COC(c4ccc(Cl)cc4)OC3CCC2(C)C1/C=C/C1=CCOC1=O (centres undefined) | 4.5 | > 100 | 26.8 | > 100 | 11.2 | > 100 | 24 | > 100 | 7.56 | > 100 |
| CCOc1c(C#N)c2c(N)ncnc2n1C1OC(CO)C(O)C1O (centres undefined) | 2.95 | 15.1 | 5.01 | 26.5 | 4.06 | 50 | 2.72 | 11.8 | 3.14 | > 100 |
| O=c1c(-c2ccc(O)cc2)coc2cc(OC3OC(CO)C(O)C(O)C3O)cc(O)c12 (centres undefined) | > 10 | > 100 | > 100 | > 100 | – | > 100 | – | > 100 | – | > 100 |
| O=C(Nc1ccc2c(c1)OCO2)C(=O)c1c[nH]c2cc(F)ccc12 | 11.7 | 69.2 | 5.11 | 21.9 | 3.23 | 36.3 | 3.52 | 44.6 | 38.3 | > 100 |
| C=C1C(=O)OC2CC3(C)CCCC(C)C3=CC12 (centres undefined) | – | 9.04 | – | – | – | 3.79 | – | 14.7 | – | 12.2 |
